Experimental findings from ChEMBL document CHEMBL4371032, “Synthesis and evaluation of 2,5-diamino and 2,5-dianilinomethyl pyridine analogues as potential CXCR4 antagonists” (2019) are described below.

Each structure is given as a SMILES string. Calls of active or inactive are those of the source. No cut-off for these calls is given here.

The subject of one test is Mus musculus. The experiment in a line: Antiinflammatory activity in C57Bl/6J mouse assessed as inhibition of carrageenan-induced paw edema at 10 mg/kg, ip treated for 2 days measured 2 hrs post last dose by caliper method relative to control. Type of test: functional. For orientation: In the carrageenan paw model, swelling and tenderness develop within hours.
Test [1] addresses C-X-C chemokine receptor type 4 (Homo sapiens) (UniProt P61073). The experiment in a line: Inhibition of biotinylated TN14003 binding to CXCR4 in human MDA-MB-231 cells preincubated for 10 mins followed by biotinylated-TN14003 addition measured after 30 mins by streptavidin-rhodamine staining based fluorescence microscopic analysis. The class given is cell-based.
Test [2] shares this target. The experiment in a line: Inhibition of CXCR4-mediated chemotaxis in human MDA-MB-231 cells assessed as reduction in CXCL12alpha-induced cell invasion at 100 nM after 22 hrs by hematoxylin/eosin dye-based matrigel assay relative to control.

Chain of C-X-C chemokine receptor type 4 (Homo sapiens) (P61073 whole entry): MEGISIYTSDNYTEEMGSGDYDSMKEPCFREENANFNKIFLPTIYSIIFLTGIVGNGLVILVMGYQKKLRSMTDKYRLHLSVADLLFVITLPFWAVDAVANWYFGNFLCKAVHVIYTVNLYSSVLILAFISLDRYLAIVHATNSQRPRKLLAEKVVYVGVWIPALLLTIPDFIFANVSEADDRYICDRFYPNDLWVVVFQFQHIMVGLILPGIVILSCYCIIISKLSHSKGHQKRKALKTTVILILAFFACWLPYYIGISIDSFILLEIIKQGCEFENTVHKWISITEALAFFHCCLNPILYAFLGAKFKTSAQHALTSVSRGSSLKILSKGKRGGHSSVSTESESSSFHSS

A word on the inhibition in vivo: it is the relative decrease from the control value, in per cent. In the case of `c1ccc(NCc2ccc(CNc3ccccn3)cc2)nc1`, the inhibition in vivo at 10 mg/kg with Mus musculus worked out at 40%.

A word on the inhibition: it is the share of the control response that was lost under treatment. `O=[N+]([O-])c1cccc(NCc2ccc(CNc3cccc([N+](=O)[O-])c3)nc2)c1`: the EC in test [1] was 100 nM. Besides, the inhibition in test [2] worked out at 73.4%.

Regarding `Clc1ccc(CNc2ccc(NCc3ccc(Cl)cc3)nc2)cc1`, in the test with Mus musculus, the inhibition in vivo at 10 mg/kg came to 8%. The compound further returned an EC in test [1] of 10 nM. The inhibition in test [2] came to 83.7%.

`O=[N+]([O-])c1cccc(CNc2ccc(NCc3cccc([N+](=O)[O-])c3)nc2)c1` yielded an EC in test [1] of 1000 nM.

On to `Cc1cccc(CNc2ccc(NCc3cccc(C)c3)nc2)c1`, for which the EC in test [1] was determined as 100 nM. In addition, the inhibition in test [2] stood at 50.4%.

`COc1ccccc1CNc1ccc(NCc2ccccc2OC)nc1` registered an EC in test [1] above 1000 nM.

In test [1], `c1ccc(CNc2ccc(NCc3ccccc3)nc2)cc1` had an EC of 1000 nM.

Consider `COc1cccc(CNc2ccc(NCc3cccc(OC)c3)nc2)c1`, for which, in test [1], the EC was above 1000 nM.

In test [1], `CCc1ccc(NCc2ccc(CNc3ccc(CC)cc3)nc2)cc1` had an EC of 1000 nM.

As to `Brc1ccc(CNc2ccc(NCc3ccc(Br)cc3)nc2)cc1`, in test [1], the EC was 1000 nM.

In the case of `COc1cccc(NCc2ccc(CNc3cccc(OC)c3)nc2)c1`, the inhibition entry in the test on Mus musculus is “inactive”. Besides, in test [1], the EC turned out to be 100 nM. Besides, the inhibition in test [2] is 76.8%.

Consider `Cc1ccc(NCc2ccc(CNc3ccc(C)cc3)nc2)cc1`, for which the inhibition entry in the test on Mus musculus was “inactive”. The compound further came in with an EC in test [1] of 100 nM. Besides, the inhibition in test [2] stood at 85.1%.

On to `Fc1ccc(NCc2ccc(CNc3ccc(F)cc3)nc2)cc1`, for which, in test [1], the EC came out at 1000 nM.

`O=[N+]([O-])c1ccccc1NCc1ccc(CNc2ccccc2[N+](=O)[O-])nc1` displayed an EC in test [1] of 1000 nM.

In the case of `c1cc(CN2CCCNCCNCCCNCC2)ccc1CN1CCCNCCNCCCNCC1`, in the test on Mus musculus, the inhibition result was “inactive”. Moreover, the inhibition in test [2] came out at 62%.

The compound `Fc1ccccc1CNc1ccc(NCc2ccccc2F)nc1` showed an EC in test [1] of 100 nM. Also, in test [2], the inhibition is 53.3%.

For the compound `Fc1ccc(CNc2ccc(NCc3ccc(F)cc3)nc2)cc1`, in test [1], the EC was found to be 1000 nM.

Turning to `Cc1ccccc1NCc1ccc(CNc2ccccc2C)nc1`, the EC in test [1] came to 1000 nM.

The compound `c1ccc(NCc2ccc(CNc3ccccc3)nc2)cc1` returned an EC in test [1] of 1000 nM.

With `Cc1cccc(NCc2ccc(CNc3cccc(C)c3)nc2)c1`, the inhibition result with Mus musculus is “inactive”. For the same compound, the inhibition in test [2] was 99%.

As for `Fc1cccc(CNc2ccc(NCc3cccc(F)c3)nc2)c1`, the EC in test [1] was 100 nM. In test [2], the inhibition came out at 4.8%.

For `COc1ccccc1NCc1cccc(CNc2ccccc2OC)n1`, the inhibition in test [2] is below 1%.

For the compound `Cc1ccc(CNc2ccc(NCc3ccc(C)cc3)nc2)cc1`, the EC in test [1] worked out at 10 nM. The inhibition in test [2] turned out to be 35.7%.

With `CCc1ccc(CNc2ccc(NCc3ccc(CC)cc3)nc2)cc1`, in test [1], the EC was above 1000 nM.

`O=[N+]([O-])c1ccc(CNc2ccc(NCc3ccc([N+](=O)[O-])cc3)nc2)cc1`: the EC in test [1] worked out at 1000 nM.

For the compound `Fc1cccc(NCc2ccc(CNc3cccc(F)c3)nc2)c1`, the inhibition in vivo at 10 mg/kg with Mus musculus was 12%. In test [1], the EC came out at 100 nM. The inhibition in test [2] stood at 82.4%.

On to `O=[N+]([O-])c1ccccc1CNc1ccc(NCc2ccccc2[N+](=O)[O-])nc1`, for which, in test [1], the EC came to 1000 nM.

The compound `Fc1ccccc1NCc1ccc(CNc2ccccc2F)nc1` had an EC in test [1] of 1000 nM.

On to `O=[N+]([O-])c1ccc(NCc2ccc(CNc3ccc([N+](=O)[O-])cc3)nc2)cc1`, for which, in the test with Mus musculus, the inhibition in vivo at 10 mg/kg was 13%. Also, in test [1], the EC stood at 1 nM. Further, the inhibition in test [2] was 80.3%.

Regarding `COc1ccccc1NCc1ccc(CNc2ccccc2OC)nc1`, in the test on Mus musculus, the inhibition in vivo at 10 mg/kg came to 11%. Also, the inhibition in test [2] turned out to be 84.1%.

With `Clc1ccc(NCc2ccc(CNc3ccc(Cl)cc3)nc2)cc1`, the EC in test [1] is 1000 nM.

Regarding `Cc1ccccc1CNc1ccc(NCc2ccccc2C)nc1`, the inhibition in vivo at 10 mg/kg in the test with Mus musculus stood at 3%. Also, the EC in test [1] came to 100 nM. Moreover, the inhibition in test [2] amounted to 82.4%.

The compound `COc1ccc(NCc2ccc(CNc3ccc(OC)cc3)nc2)cc1` came in with an EC in test [1] of 1000 nM.

Regarding `Brc1ccc(NCc2ccc(CNc3ccc(Br)cc3)nc2)cc1`, in test [1], the EC was found to be 1000 nM.
